Test results published in patent US20070020196A1, “Inhalant formulation containing sulfoalkyl ether cyclodextrin and corticosteroid prepared from a unit dose suspension” (priority 2003, published 2007).
Blank lines part the entries; values can stand above or below the compound they belong to.

Assays:
[1] = Density of CAPTISOL solutions (pycnometer); format: physicochemical; conditions: 25° C.
Description: The concentration of SAE-CD in solution can be expressed on a weight to weight or weight to volume basis; however, these two units are interconvertible. When a known weight of cyclodextrin is dissolved in a known weight of water, the % w/w cyclodextrin concentration is determined by dividing the cyclodextrin weight in grams by the total weight (cyclodextrin+water weight) in like units and multiplying by 100. When a known weight of cyclodextrin is dissolved to a known total volume, the % w/v cyclodextrin concentration is determined by dividing the cyclodextrin weight in grams by the total volume in milliliters and multiplying by 100. The correlation between the two cyclodextrin concentration percentages was experimentally determined by preparing various % w/w cyclodextrin solutions and measuring the density of each with a pycnometer at 25° C.

[2] = Viscosity of aqueous SAE-CD solutions (cone and plate viscometer); format: physicochemical; conditions: 25 C
Description: The performance of an inhalable solution of the invention in a nebulizer may depend upon the viscosity of the solution in its reservoir, the nebulization solution. Viscosity of the inhalable composition can have an impact on percentage of nebulization composition emitted from a nebulizer, output rate of nebulized corticosteroid and droplet size distribution.
The viscosity of aqueous solutions containing SAE-CD were measured using a cone and plate viscometer.
A Brookfield Programmable DV-III+ Rheometer, CPE-40 cone and CPE 40Y plate (Brookfield Engineering Laboratories, Middleboro, Mass.) was used to make measurements on 0.5 ml samples at 1, 2, 3, 5 and 10 rpm. Samples were sheered for approximately 5 revolutions prior to each measurement. This allowed accurate rheological characterization of the samples. The temperature of all samples was equilibrated to 25+/−1 degree centigrade using a double wall viscometer cone supplied with water from an electronically controlled thermostatic circulating water bath (Model, 8001, Fisher Scientific, Pittsburgh, Pa.). The viscometer was calibrated using 5 and 50 centipoise using silicon oil calibration standards. Viscosity measurements were made at 5 or more rotation speeds to look for sheer thinning behavior (viscosities that decrease as the rate of sheer increases). Higher rotation speeds result in increased rates of sheer.

[3] = Tonicity of SBE7-β-CD solutions with respect to blood; format: physicochemical; conditions: in water
From the text: An osmotic agent can be used in the compositions to enhance the overall comfort to the patient upon delivery of the corticosteroid composition. Osmotic agents can be added to adjust the tonicity of SAE-CD containing solutions. Osmolality is related to concentration of SAE-CD in water. At SBE7-β-CD concentrations below about 11-13% w/v, the solutions are hypotonic or hypoosmotic with respect to blood and at SBE7-β-CD concentrations above about 11-13% w/v the SBE7-β-CD containing solutions are hypertonic or hyperosmotic with respect to blood. When red blood cells are exposed to solutions that are hypo- or hypertonic, they can shrink or swell in size, which can lead to hemolysis. As noted above and in FIG. 1, SBE-CD is less prone to induce hemolysis than other derivatized cyclodextrins. Suitable osmotic agents include any low molecular weight water-soluble species pharmaceutically approved for pulmonary and nasal delivery such as sodium chloride, lactose and glucose. The formulation of the invention can also include biological salt(s), potassium chloride, or other electrolyte(s).

[4] = system: red blood cells; conditions: concentrations typically used to solubilize pharmaceutical formulations; cited from earlier work
[5] = Molar ratio SAE-CD:corticosteroid at saturated solubility (phase solubility binding study); format: physicochemical
[6] = Light stability of budesonide under fluorescent lights; format: physicochemical
From the text: Samples of the above solutions were also placed in a chamber under a bank of fluorescent lights. Vials were periodically removed and assayed for budesonide. […] The loss of budesonide was first order and independent of pH.

[7] = Solubility of selected steroids enhanced by cyclodextrins (phase solubility); conditions: thermodynamic from solid
[8] = male, human, in vivo; cited from earlier work

Density ([1]; 8.5 % w/w Captisol): 1.041 g/mL
Density ([1]; 29.8 % w/w Captisol): 1.149 g/mL
Density ([1]; 39.7 % w/w Captisol): 1.202 g/mL
Density ([1]; 49.4 % w/w Captisol): 1.259 g/mL
Density ([1]; 59.4 % w/w Captisol): 1.320 g/mL
Density ([1]; […] w/w Captisol): 1.095 g/mL
SBE7-β-CD concentration below which solutions are hypotonic and above which hypertonic with respect to blood [3]: 11-13 % w/v
Compound: Sulfobutyl ether β-cyclodextrin [Captisol]
Viscosity ([2]; 8.5 % w/w Captisol): 1.75 Cp
Viscosity ([2]; 29.8 % w/w Captisol): 5.91 Cp
Viscosity ([2]; 39.7 % w/w Captisol): 17.0 Cp
Viscosity ([2]; 49.4 % w/w Captisol): 51.9 Cp
Viscosity ([2]; 59.4 % w/w Captisol): 527.0 Cp
Viscosity ([2]; […] w/w Captisol): 2.78 Cp
Hemolytic behavior [4]: essentially no hemolytic behavior

Light Stability, Pseudo 1st Order Rate constant ([6]; Captisol, pH 4): 0.0585 h⁻¹
Light Stability, Pseudo 1st Order Rate constant ([6]; Captisol, pH 6): 0.0562 h⁻¹
Light Stability, Pseudo 1st Order Rate constant ([6]; No Captisol, pH 4): 0.0812 h⁻¹
Light Stability, Pseudo 1st Order Rate constant ([6]; No Captisol, pH 6): 0.0822 h⁻¹
solubility ([7]; aqueous cyclodextrin solution, aqueous with cosolvent or surfactant or cyclodextrin, Solubility of steroid, (SBE)5.2 γ-CD 0.04 M): 3.76 mM
solubility ([7]; aqueous cyclodextrin solution, aqueous with cosolvent or surfactant or cyclodextrin, Solubility of steroid, (SBE)5.2 γ-CD 0.1 M): 8.62 mM
solubility ([7]; aqueous cyclodextrin solution, aqueous with cosolvent or surfactant or cyclodextrin, Solubility of steroid, (SBE)6.1 γ-CD 0.04 M): 3.07 mM
solubility ([7]; aqueous cyclodextrin solution, aqueous with cosolvent or surfactant or cyclodextrin, Solubility of steroid, (SBE)6.1 γ-CD 0.08 M): 6.99 mM
solubility ([7]; aqueous cyclodextrin solution, aqueous with cosolvent or surfactant or cyclodextrin, Solubility of steroid, (SBE)6.7 β-CD 0.0465 M): 2.55 mM
solubility ([7]; aqueous cyclodextrin solution, aqueous with cosolvent or surfactant or cyclodextrin, Solubility of steroid, (SBE)6.7 β-CD 0.0950 M): 4.28 mM
solubility ([7]; aqueous cyclodextrin solution, aqueous with cosolvent or surfactant or cyclodextrin, Solubility of steroid, (SBE)7 α-CD 0.04 M): 3.48 mM
solubility ([7]; aqueous cyclodextrin solution, aqueous with cosolvent or surfactant or cyclodextrin, Solubility of steroid, (SBE)7 α-CD 0.08 M): 5.98 mM
solubility ([7]; aqueous cyclodextrin solution, aqueous with cosolvent or surfactant or cyclodextrin, Solubility of steroid, (SBE)9.7 γ-CD […]): 4.53 mM
solubility ([7]; aqueous cyclodextrin solution, aqueous with cosolvent or surfactant or cyclodextrin, Solubility of steroid, (SPE)5.4 γ-CD 0.04 M): 4.01 mM
solubility ([7]; aqueous cyclodextrin solution, aqueous with cosolvent or surfactant or cyclodextrin, Solubility of steroid, (SPE)5.4 γ-CD 0.08 M): 7.74 mM
solubility ([7]; aqueous cyclodextrin solution, aqueous with cosolvent or surfactant or cyclodextrin, Solubility of steroid, (SPE)7 β-CD 0.08 M): 2.42 mM
solubility ([7]; aqueous cyclodextrin solution, aqueous with cosolvent or surfactant or cyclodextrin, Solubility of steroid, β-CD 0.015M): 0.813 mM
solubility ([7]; aqueous cyclodextrin solution, aqueous with cosolvent or surfactant or cyclodextrin, Solubility of steroid, γ-CD 0.035 M): 0.101 mM
solubility ([7]; aqueous cyclodextrin solution, aqueous with cosolvent or surfactant or cyclodextrin, Solubility of steroid, γ-CD 0.1 M): 0.041 mM
solubility ([7]; aqueous cyclodextrin solution, aqueous with cosolvent or surfactant or cyclodextrin, [Steroid] solubility, (SBE)6.1 γ-CD (0.04 M)): 3.07 mM
solubility ([7]; aqueous cyclodextrin solution, aqueous with cosolvent or surfactant or cyclodextrin, [Steroid] solubility, Captisol (0.04 M)): 2.55 mM
solubility ([7]; water, Solubility of steroid, H2O, no CD): 0.0659 mM
solubility ([7]; water, [Steroid] Intrinsic Solubility (in H2O), in H2O): 0.066 mM
Compound: CCCC1O[C@@H]2C[C@H]3[C@@H]4CCC5=CC(=O)C=C[C@]5(C)[C@H]4[C@@H](O)C[C@]3(C)[C@]2(C(=O)CO)O1 (stereo partly drawn) [Budesonide, (R,S)-11β,16α,17,21-tetrahydroxypregna-1,4-diene-3,20-dione cyclic 16,17-acetal with butyraldehyde]
Approximate Molar Ratio at Saturated Solubility of Corticosteroid (SAE-CD: corticosteroid) ([5]; SAE-α-CD): ~12
Approximate Molar Ratio at Saturated Solubility of Corticosteroid (SAE-CD: corticosteroid) ([5]; SAE-β-CD): ~16
Approximate Molar Ratio at Saturated Solubility of Corticosteroid (SAE-CD: corticosteroid) ([5]; SAE-γ-CD (SBE5.2)): ~10.8 (SBE5.2),
Approximate Molar Ratio at Saturated Solubility of Corticosteroid (SAE-CD: corticosteroid) ([5]; SAE-γ-CD (SBE6.1)): ~13 (SBE6.1),
Approximate Molar Ratio at Saturated Solubility of Corticosteroid (SAE-CD: corticosteroid) ([5]; SAE-γ-CD (SPE5.4)): ~10.1 (SPE5.4)

Compound: CCNC(=O)[C@@H]1CCCN1C(=O)[C@H](CCCNC(=N)N)NC(=O)[C@H](CC(C)C)NC(=O)[C@@H](CC(C)C)NC(=O)[C@H](Cc1ccc(O)cc1)NC(=O)[C@H](CO)NC(=O)[C@H](Cc1c[nH]c2ccccc12)NC(=O)[C@H](Cc1c[nH]cn1)NC(=O)[C@@H]1CCC(=O)N1 [leuprolide acetate]
Bioavailability [8]: 2.4%
Bioavailability compared with i.v. [8]: 94%
